Test [1] concerns MLKL phosphorylation in HT29-L23 human colorectal adenocarcinoma cells. Description: MLKL phosphorylation high-content assay. The conditions noted are these: 6 h, necroptosis induced with TNFα, SMAC mimetic and Z-VAD, 6 h, maximal inhibition defined by Nec1s. The class given is cell-based.
Test [2] concerns the target T1, His-GST-TVMV-hRIPK1(1-324) (Homo sapiens, UniProt Q13546).
T1 construct: The coding region of human RIPK1(1-324) flanked by NdeI site at 5′ end; made in house; host or cells: Spodoptera frugiperda Sf9 insect cells (baculovirus, Bac-to-Bac)
T1 sequence (Q13546 1-324): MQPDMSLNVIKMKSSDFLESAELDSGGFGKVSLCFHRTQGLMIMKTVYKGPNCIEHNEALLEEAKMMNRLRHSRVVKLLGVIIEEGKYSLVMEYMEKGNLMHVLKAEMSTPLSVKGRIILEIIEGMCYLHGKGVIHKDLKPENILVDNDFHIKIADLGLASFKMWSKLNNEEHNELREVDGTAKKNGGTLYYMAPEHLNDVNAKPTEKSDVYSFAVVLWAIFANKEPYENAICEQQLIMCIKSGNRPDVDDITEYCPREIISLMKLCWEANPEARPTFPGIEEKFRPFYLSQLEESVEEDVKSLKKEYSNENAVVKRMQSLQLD
Put plainly: biochemical. The class given is binding. As to conditions: read-out: RIPK1 IC50.

The mark [3] stands for this setting: Homo sapiens, read-out: pMLKL IC50, HT29-L23 cells.
Setting [4] is: HTRF probe displacement, 1 h at rt.
Where [5] appears, read: read-out: pMLKL IC50, HT29-L23 cells.
[6] abbreviates: HT29-L23 cells, read-out: pMLKL IC50.
Setting [7] is: Homo sapiens, HT29-L23 cells, read-out: pMLKL IC50.

Experimental findings from patent US11767322B2 (BRISTOL-MYERS SQUIBB COMPANY, priority 2020, dated 2023) are described below.

Like-named read-outs stand apart in the source and are kept apart here.

A word on the IC50: it is the concentration that gives 50% inhibition. As for `Cc1ccc(-c2ccn3nc(N)nc3c2)c(F)c1C(=O)NCC(F)(F)C(O)c1c(F)cc(F)cc1F` (single isomer, unassigned) [Example 283, 3-(2-amino-[1,2,4]triazolo[1,5-a]pyridin-7-yl)-N-(2,2-difluoro-3-hydroxy-3-(2,4,6-trifluorophenyl)propyl)-2-fluoro-6-methylbenzamide], the half-maximal inhibitory concentration (IC50) stood at 1 nM in test [1] (setting [3]) and 0.5 nM in test [2] (setting [4]). For `CCc1cc(F)c(-c2ccn3nc(N)nc3c2)cc1C(=O)NCC[C@H](O)c1ccc(Cl)cc1` [Example 157], in that order: 6.7 nM and 3.1 nM. In the case of `Nc1nc2cc(-c3ccc(Cl)c(C(=O)NCC(F)C(O)c4ccc(Cl)cc4)c3F)ccn2n1` (centres unmarked) [Example 128, 3-(2-amino-[1,2,4]triazolo[1,5-a]pyridin-7-yl)-6-chloro-N-(3-(4-chlorophenyl)-2-fluoro-3-hydroxypropyl)-2-fluorobenzamide], the 50% inhibitory concentration (IC50) in test [1] (setting [3]) came to 1.2 nM; in test [2] (setting [4]) it was 5 nM. The like results for `Nc1nc2cc(-c3ccc(Cl)c(C(=O)NCCC(O)c4ccc(F)cc4)c3F)ccn2n1` (single isomer, unassigned) [Example 79, 3-(2-amino-[1,2,4]triazolo[1,5-a]pyridin-7-yl)-6-chloro-2-fluoro-N-(3-(4-fluorophenyl)-3-hydroxypropyl)benzamide] were, in that order, 19 nM and 4.8 nM.

As for `[2H]C([2H])([2H])c1ccc(-c2ccn3nc(N)nc3c2)c(F)c1C(=O)NC[C@@H](F)[C@@](C)(O)c1ccc(F)cc1` [Example 216, 3-(2-amino-[1,2,4]triazolo[1,5-a]pyridin-7-yl)-2-fluoro-N-((2R,3S)-2-fluoro-3-(4-fluorophenyl)-3-hydroxybutyl)-6-(methyl-d3)benzamide], the half-inhibitory concentration (IC50) in test [1] (setting [3]) was 0.4 nM; in test [2] (setting [4]) it was 4.7 nM. As to `Nc1nc2cc(-c3ccc(Cl)c(C(=O)NCC(F)(F)C(O)c4cc(F)ccc4F)c3F)ccn2n1` (single isomer, unassigned) [Example 176, 3-(2-amino-[1,2,4]triazolo[1,5-a]pyridin-7-yl)-6-chloro-N-(3-(2,5-difluorophenyl)-2,2-difluoro-3-hydroxypropyl)-2-fluorobenzamide], the IC50 in test [1] (setting [5]) amounted to 1.9 nM; in test [2] (setting [4]), 0.3 nM. For `Cc1ccc(-c2ccn3nc(N)nc3c2C)c(F)c1C(=O)NCC[C@H](O)c1ccc(Cl)cc1` (single isomer, unassigned; enantiomer 2) [Example 138], the results for the half-inhibitory concentration (IC50) in test [1] (setting [6]) and in test [2] (setting [4]) were 0.2 nM and 11 nM, respectively. `Nc1nc2cc(-c3ccc(Cl)c(C(=O)NCC(F)(F)C(O)c4ccc(C(F)(F)F)cc4F)c3F)ccn2n1` (centres unmarked) [Example 165, 3-(2-amino-[1,2,4]triazolo[1,5-a]pyridin-7-yl)-6-chloro-N-(2,2-difluoro-3-(2-fluoro-4-(trifluoromethyl)phenyl)-3-hydroxypropyl)-2-fluorobenzamide]: the values for the IC50 in test [1] (setting [5]) and in test [2] (setting [4]) were 2.8 nM and 1.6 nM, respectively. `Nc1nc2cc(-c3ccc(Cl)c(C(=O)NCC(F)(F)C(O)c4ccc(Cl)cc4F)c3F)ccn2n1` (single isomer, unassigned) [Example 163, 3-(2-amino-[1,2,4]triazolo[1,5-a]pyridin-7-yl)-6-chloro-N-(3-(4-chloro-2-fluorophenyl)-2,2-difluoro-3-hydroxypropyl)-2-fluorobenzamide]: the figures for the IC50 in test [1] (setting [5]) and in test [2] (setting [4]) were 1.3 nM and 0.3 nM, respectively. For `Cc1ccc(-c2ccn3nc(N)nc3c2)c(F)c1C(=O)NCC(C)(F)C(O)c1ccc(F)cc1` (single isomer, unassigned) [Example 203, 3-(2-amino-[1,2,4]triazolo[1,5-a]pyridin-7-yl)-2-fluoro-N-(2-fluoro-3-(4-fluorophenyl)-3-hydroxy-2-methylpropyl)-6-methylbenzamide], in that order: 2.7 nM and 5.6 nM. For the compound `[2H]C([2H])([2H])c1cccc(C(O)C(F)(F)CNC(=O)c2c(C([2H])([2H])[2H])ccc(-c3ccn4nc(N)nc4c3)c2F)c1F` (single isomer, unassigned) [Example 206, 3-(2-amino-[1,2,4]triazolo[1,5-a]pyridin-7-yl)-N-(2,2-difluoro-3-(2-fluoro-3-(methyl-d3)phenyl)-3-hydroxypropyl)-2-fluoro-6-(methyl-d3)benzamide], the IC50 in test [2] (setting [4]) turned out to be 7.7 nM.

As to `Cc1ccc(-c2ccn3nc(N)nc3c2)c(F)c1C(=O)NCC(F)(F)C(C)(O)c1ccc(F)cc1` (racemic) [Example 18, 3-(2-amino-[1,2,4]triazolo[1,5-a]pyridin-7-yl)-N-(2,2-difluoro-3-(4-fluorophenyl)-3-hydroxybutyl)-2-fluoro-6-methylbenzamide], in test [2] (setting [4]), the concentration for half-maximal inhibition (IC50) worked out at 8.9 nM. Still for that read-out and setting: under `Cc1ccc(-c2ccn3nc(N)nc3c2)c(F)c1C(=O)NCCC(O)c1ccc(Cl)c(Cl)c1` (centres unmarked) [Example 32, 3-(2-amino-[1,2,4]triazolo[1,5-a]pyridin-7-yl)-N-(3-(3,4-dichlorophenyl)-3-hydroxypropyl)-2-fluoro-6-methylbenzamide] stands 2.2 nM; under `COc1c(-c2ccc(C)c(C(=O)NCC[C@H](O)c3ccc(Cl)cc3)c2F)ccn2nc(N)nc12` [compound 133], 3.8 nM. On the same count and under the same terms, in the case of `CC(O)(c1ccc(F)cc1)C(F)(F)CNC(=O)c1c(Cl)ccc(-c2ccn3nc(N)nc3c2)c1F` (centres unmarked) [Example 87, 3-(2-amino-[1,2,4]triazolo[1,5-a]pyridin-7-yl)-6-chloro-N-(2,2-difluoro-3-(4-fluorophenyl)-3-hydroxybutyl)-2-fluorobenzamide] it was 8.6 nM; in that of `Cc1ccc(C(O)C(F)(F)CNC(=O)c2c(Cl)ccc(-c3ccn4nc(N)nc4c3)c2F)cc1` (centres unmarked) [Example 172, 3-(2-amino-[1,2,4]triazolo[1,5-a]pyridin-7-yl)-6-chloro-N-(2,2-difluoro-3-hydroxy-3-(p-tolyl)propyl)-2-fluorobenzamide], 1.3 nM. Regarding `CCc1ccc(-c2ccn3nc(N)nc3c2)c(F)c1C(=O)NCC(F)(F)C(O)c1ccc(F)cc1` (centres unmarked) [Example 121, 3-(2-amino-[1,2,4]triazolo[1,5-a]pyridin-7-yl)-N-(2,2-difluoro-3-(4-fluorophenyl)-3-hydroxypropyl)-6-ethyl-2-fluorobenzamide], the concentration for half-maximal inhibition (IC50) in test [1] (setting [7]) was found to be 1 nM. With `[2H]C([2H])([2H])C(O)(c1ccc(F)cc1)C(F)CNC(=O)c1c(C(F)F)ccc(-c2ccn3nc(N)nc3c2)c1F` (single isomer, unassigned) [Example 194, 3-(2-amino-[1,2,4]triazolo[1,5-a]pyridin-7-yl)-6-(difluoromethyl)-2-fluoro-N-(2-fluoro-3-(4-fluorophenyl)-3-hydroxybutyl-4,4,4-d3)benzamide], the half-inhibitory concentration (IC50) in test [1] (setting [6]) is 8.8 nM. As to `Nc1nc2cc(-c3ccc(Cl)c(C(=O)NCC(F)(F)C(O)C4CCC(F)(F)CC4)c3F)ccn2n1` (centres unmarked) [Example 256, 3-(2-amino-[1,2,4]triazolo[1,5-a]pyridin-7-yl)-6-chloro-N-(3-(4,4-difluorocyclohexyl)-2,2-difluoro-3-hydroxypropyl)-2-fluorobenzamide], the IC50 in test [2] (setting [4]) amounted to 3.2 nM. For `COc1ncc(-c2ccn3nc(N)nc3c2)cc1C(=O)NCC[C@H](O)c1ccc(Cl)cc1` [Example 157], the half-inhibitory concentration (IC50) in test [2] (Table 23, representative compounds from WO2018/148626) came out at 59 nM. On to `COc1ccc(-c2ccn3nc(N)nc3c2)c(F)c1C(=O)NCC(F)(F)C(O)c1ccc(F)cc1` (single isomer, unassigned) [Example 125, 3-(2-amino-[1,2,4]triazolo[1,5-a]pyridin-7-yl)-N-(2,2-difluoro-3-(4-fluorophenyl)-3-hydroxypropyl)-2-fluoro-6-methoxybenzamide], for which the concentration for half-maximal inhibition (IC50) in test [1] (setting [6]) came out at 2.9 nM. On the same count and under the same terms, in the case of `COc1ccc(-c2ccn3nc(N)nc3c2)c(F)c1C(=O)NCC(F)(F)C(O)c1ccc(F)cc1` (single isomer, unassigned) [Example 124, 3-(2-amino-[1,2,4]triazolo[1,5-a]pyridin-7-yl)-N-(2,2-difluoro-3-(4-fluorophenyl)-3-hydroxypropyl)-2-fluoro-6-methoxybenzamide] it was 1.4 nM.

Take `[2H]C([2H])([2H])c1ccc(-c2ccn3nc(N)nc3c2)c(F)c1C(=O)NC[C@H](F)[C@@](C)(O)c1ccc(F)cc1` [Example 213, 3-(2-amino-[1,2,4]triazolo[1,5-a]pyridin-7-yl)-2-fluoro-N-((2S,3S)-2-fluoro-3-(4-flurophenyl)-3-hydroxybutyl)-6-(methyl-d3)benzamide]: the half-inhibitory concentration (IC50) in test [1] (setting [7]) stood at 13 nM.

Turning to `Cc1ccc(-c2ccn3nc(N)nc3c2)c(F)c1C(=O)NCC(F)(F)C(C)(O)c1ccc(F)cc1` (single isomer, unassigned) [Example 62, 3-(2-amino-[1,2,4]triazolo[1,5-a]pyridin-7-yl)-N-(2,2-difluoro-3-(4-fluorophenyl)-3-hydroxybutyl)-2-fluoro-6-methylbenzamide], the half-inhibitory concentration (IC50) in test [1] (setting [6]) was 1.1 nM. Consider `COc1ccc(C(O)C(F)(F)CNC(=O)c2c(Cl)ccc(-c3ccn4nc(N)nc4c3)c2F)cc1` (single isomer, unassigned) [Example 184, 3-(2-amino-[1,2,4]triazolo[1,5-a]pyridin-7-yl)-6-chloro-N-(2,2-difluoro-3-hydroxy-3-(4-methoxyphenyl)propyl)-2-fluorobenzamide], for which, in test [1] (setting [3]), the IC50 came to 0.4 nM.
